Experimental data reported in ChEMBL document CHEMBL1153778, “Contact-active microbicidal gold surfaces using immobilization of quaternary ammonium thiol derivatives” (2009).

Columns and labels:
Assay type in all cases: functional
Staphylococcus aureus [1] = assay: Antimicrobial activity against Staphylococcus aureus ATCC 6538 on gold coated surface assessed as bactericidal efficiency after 4 hrs
Staphylococcus aureus [2] = assay: Antimicrobial activity against Staphylococcus aureus ATCC 6538 on gold coated surface assessed as log reduction of colony forming units after 4 hrs
Staphylococcus aureus [3] = assay: Antimicrobial activity against Staphylococcus aureus ATCC 6538 on gold coated surface assessed as log reduction of colony forming units after 24 hrs

Compound | Activity (Staphylococcus aureus [1]) | Activity (Staphylococcus aureus [2]) | Activity (Staphylococcus aureus [3])
CCCCCCCCCC[N+](C)(C)CCCNC(=O)CCCCCCCCCCS.[Cl-] | 67 | 0.39 | 0
C[N+](C)(C)CCCCCCCCCCCS.[Cl-] | 30 | 0.14 | 0
CCCCCCCCCC[N+](C)(C)CCCCCCCCCCCS.[Cl-] | 51 | 0.31 | 0
CCCCCCCCCCCCCC[N+](C)(C)CCCNC(=O)CCCCCCCCCCS.[Cl-] | 30 | 0.14 | 0
C[N+](C)(CCCNC(=O)CCCCCCCCCCS)Cc1ccccc1.[Cl-] | 0 | 0 | 0
CCCCCCCCCCCC[N+](C)(C)CCCCCCCCCCCS.[Cl-] | 51 | 0.31 | 0
CCCCCCCCCCCCCC[N+](C)(C)CCCCCCCCCCCS.[Cl-] | 0 | 0 | 0
C[N+](C)(C)CCCNC(=O)CCCCCCCCCCS.[Cl-] | 30 | 0.14 | 0
CCCCCCCCCCCC[N+](C)(C)CCCNC(=O)CCCCCCCCCCS.[Cl-] | 51 | 0.31 | 0
C[N+](C)(CCCCCCCCCCCS)Cc1ccccc1.[Cl-] | 30 | 0.14 | 0
